# Data taken from US12129490B2, “Methods for generating hepatocytes and cholangiocytes from pluripotent stem cells” (UNIVERSITY HEALTH NETWORK, priority 2018, dated 2024).
# Several values for one entry are separate records, joined by “and”; a condition that tells them apart may be missing. Equal entries are not always repeated. Where two headings read alike, the source gives them in different places.
# How the values were obtained:
# [1] = system: hESC-derived hepatic aggregates; assay: Intracellular flow cytometry of AFP+ and ALB+ cells in hepatic aggregates; assay type: cell-based, human; details: day 44 aggregates
# Procedure: The proportion of ALB positive cells, on the other hand, was higher in the cAMP-treated population (89.5+/−5.6% vs 82.3+/−3.0%, P<0.05 (mean+/−SD, n=3).
# Flow cytometric analyses were performed as described previously^45. For cell surface markers, staining was carried out in PBS with 10% FCS. For intracellular proteins, staining was performed on cells fixed with 4% paraformaldehyde (Electron Microscopy Science, Hatfield, PA, USA) in PBS. Cells were permeabilized with 90% ice-cold methanol for 20 minutes for Sox17 and FoxA2 staining as previously described^45. Albumin and alpha-fetoprotein staining was performed in PBS with 10% FCS and 0.5% saponin (Sigma). Stained cells were analyzed using an LSRII flow cytometer (BD).
# [2] = system: hESC-derived hepatic aggregates
# Source text: To further mature the cells, the role of cAMP signaling was investigated. Studies using hepatic cell lines have shown that activation of this pathway can induce hepatic gene expression, in part through the induction of the peroxisome proliferator-activated receptor gamma coactivator-1-alpha (PGC1-a), a coactivator that functions together with HNF4a to regulate the expression of many genes involved in hepatocyte function 25 28. […] The proportion of ALB positive cells was not reduced in spite of the fact that the levels of mRNA declined (FIG. 5b). Without being bound by theory, these differences could reflect differences in RNA vs. protein expression. Other tissues, such as the pancreas, also express PGC-1a.
# (§1) HPSCs were maintained on irradiated mouse embryonic feeder cells in hESC media consisting of DEME/F12 (50:50; Gibco) supplemented with 20% Knock-out serum replacement (KSR) as described previously^44. Prior to the generation of embryoid bodies (EBs), hESCs were passaged onto Matrigel™-coated plates for 1 day to deplete the population of feeder cells. […] At day 1, the EBs were harvested and re-cultured in induction medium A that consisted of StemPRO-34® supplemented with glutamine (2 mM), ascorbic acid ([…]; Sigma), MTG ([…]; Sigma), basic fibroblast growth factor (bFGF; 2.5 ng/ml), activin A (100 ng/ml), Wnt3a (25 ng/ml) and BMP4 (0.25 ng/ml) for 3 days. On day 4, the EBs were harvested and re-cultured in StemPRO-34® supplemented with bFGF (10 ng/ml), activin A (100 ng/ml), Wnt3a (25 ng/ml) and BMP4 (0.25 ng/ml) (medium B). EBs were harvested at day 6, dissociated to single cells and the cells cultured for 2 days on Matrigel™-coated 12 well plates at a concentration of 4×10^5 cells in media B without Wnt3A and with activin A at a concentration of 50 ng/ml. At day 8, medium B was replaced with hepatic specification media that consisted of Iscove's Modified Dulbecco's Medium (IMDM) supplement with 1% vol/vol B27 supplement (Invitrogen: A11576SA), ascorbic acid, MTG, FGF10 (50 ng/ml) (from day 8 to day 10), bFGF (20 ng/ml) (from day 10 to day 14), and BMP4 (50 ng/ml). Media was changed every 2 days from day 8 to day 14. To promote maturation of HES2-derived hepatic cells, they were cultured in maturation media A for 12 days. Maturation media A consisted of IMDM with 1% vol/vol B27 supplement, ascorbic acid, Glutamine, MTG, Hepatocyte growth factor (HGF) (20 ng/ml), Dexamethasone Dex) (40 ng/ml) and Oncostatin M (20 ng/ml). Aggregates were generated from the population at day 26 of culture. To generate aggregates the cells were dissociated with collagenase and TrypleLE and then cultured in six well ultra-low cluster dishes at a concentration of 6×10^5 cells per well in maturation medium A supplemented with Rho-kinase inhibitor and 0.1% BSA. Aggregates were maintained under these conditions until day 32, with media changes every 3 days. […] Media was changed every 3 days. To generate hepatocyte like cells from H9, H1 and IPS cells, the following changes were made to the hepatic specification media. […] All cytokines were human and purchased from R&D Systems, unless stated otherwise. EB and monolayer cultures were maintained in a 5% CO2, 5% O2, 90% N2 environment. Aggregation cultures were maintained in a 5% CO2 ambient air environment.
# (§2) Total RNA was prepared with RNAqueous® Micro Kit (Ambion) and treated with RNase-free DNase (Ambion). 500 ng to 1 μg RNA was reverse transcribed into cDNA using random hexamers and Oligo(dT) with Superscript® III Reverse Transcriptase (Invitrogen). qPCR was performed on a MasterCycler® ep realplex (Eppendorf) using A QuentiFast SYBR Green PCR Kit (Quiagen) as described previously^45. Expression levels were normalized to the housekeeping gene TATA box binding protein (TBP). […] Total human adult and fetal liver RNA was purchased from Clontech. Two primary hepatocyte RNA samples were provided by Dr Stephen C. […] Two primary hepatocyte samples were cultured for two day and were harvested.
# [3] = system: UDP-glucuronosyltransferase (UGT); assay: Total UGT activity, 4-MU glucuronidation; assay type: in vitro ADME, human; details: cAMP-treated aggregates versus primary cultured hepatocytes
# hepatic aggregates = assay: Indocyanine green (ICG) uptake of hepatic aggregates; assay type: cell-based, human; details: day 44 aggregates
# Procedure: The indocyanine green (ICG, Sigma) solution was added to the cells at final concentration of 1 mg/ml ICG in HCM (Lonza). The cells were incubated at 37° C. for 1 hour, washed 3 times with PBS, and then examined with an inverted Microscope (Leica).
# [4] = system: H9- and iPSC (38-2)-derived hepatic aggregates
# Procedure: as §1, §2
# hESC-derived cells = assay: Albumin secretion, ELISA; assay type: cell-based, human
# Procedure: The levels of albumin (ALB) secreted by hESC-derived monolayer and aggregate populations, as well as by HepG2 cells, Huh7 cells and cryopreserved hepatocytes (PH, lot OSI) was detected using an ELISA assay. […] Only low levels were detected in HepG2, Huh7 and PH cells. By contrast, the capacity to take up indocyanine green (ICG), a characteristic of adult hepatocytes (Stieger et al., 2012) was enhanced by cAMP signaling. ICG uptake and release by cAMP-treated and non-treated was measured in day 44 aggregates.
# [5] = hepatic aggregates, day 32 to 44
# [6] = hepatic aggregates, day 32 to 44, average
compound,measurement,setting,value
"Nc1ncnc2c1nc(Br)n2[C@@H]1O[C@@H]2COP(=O)(O)O[C@H]2[C@H]1O [8-Br-cAMP, 8-bromoadenosine-3′5″-cyclic monophosphate]",proportion of AFP+ cells,[1],26% and 34.5+/−12.4%
same,proportion of ALB+ cells,[1],89.5+/−5.6%
same,expression of CYP1A2 and CYP3A4,[2],little increase
same,increase in expression of CYP1A2,[2],18 fold
same,increase in expression of CYP2B6,[2],4.7 fold
same,increase in expression of CYP3A4,[2],2.5 fold
same,induction of UGT1A1 expression,"[2]; HES2-derived aggregates, day 44, relative to non-treated",11 fold
same,expression of PGC1-a,[2]; hESC-derived insulin positive pancreatic cells,not induced
same,expression level of AFP,[2]; [5],downregulated
same,expression level of ALB,[2]; [5],downregulated
same,expression of PGC1-a,[2]; [5],15 fold
same,expression of G6P,[2]; [6],25 fold
same,expression of TAT,[2]; [6],33 fold
same,UGT activity,[3],higher than that of primary cultured hepatocytes
same,ICG staining of aggregates,hepatic aggregates,almost all treated aggregates stained with ICG
same,expression of CYP1A2,[4],100 fold
same,expression of CYP2B6,[4],10 fold
same,expression of CYP3A4,[4],16 fold
same,"expression of CYP3A4, CYP1A2, CYP2B6 and UGT1A1",[4],as high as those in primary hepatocytes
same,expression of UGT1A1,[4]; H9-derived aggregates,16 fold
same,albumin secretion,hESC-derived cells,not impacted
